In patent publication US20100130439A1, “GENOMIC MUTATION INHIBITORS THAT INHIBIT Y FAMILY DNA POLYMERASES” (priority 2007, published 2010):

Key:
[1] = test system: wild-type and the isolated mutant cells; test: MIC of AZT against wild-type and isolated mutant cells; type: cell-based, E. coli
Method: (§1) Characterization of mutants. The MICs were determined of over one hundred isolated antibiotic-resistant colonies. All of the ciprofloxacin-resistant mutants had MICs of 480 ng/mL (FIG. 2B). The ciprofloxacin resistance mutants contained a CG to TA transition translating into a Ser 83→Leu mutation in DNA gyrase. This mutation is known to provide the greatest ciprofloxacin resistance obtainable in a single step (Drlica K, Zhao X (1997) Microbiol Mol Biol Rev 61: 377-392).

CC 102 = test: MIC of AZT against CC102; type: cell-based, E. coli; details: Escherichia coli, read-out: AZT MIC
From the text: One strain, CC102, required a GC to AT transition.

[2] = test system: most gram-negative bacteria; details: Elwell et al. 1987; cited from earlier work
[3] = test system: ciprofloxacin-resistant mutants; test: MIC of isolated ciprofloxacin-resistant colonies; type: cell-based, E. coli; details: Escherichia coli
Method: as §1

[4] = test system: wild-type MG1655 K12 E. coli; type: cell-based; details: d4T 6 μg/mL
[5] = test system: triclosan-resistant mutants; test: MIC of isolated triclosan-resistant colonies; type: cell-based, E. coli; details: Escherichia coli
Method: as §1
The vast majority of isolated triclosan-resistant mutants (˜85%) had MICs of 16 μg/mL. These colonies had acquired a GC to TA transversion resulting in a Gly 93→Val mutation in FabI, the known protein target of triclosan (FIG. 2B). This mutation is known to produce the greatest triclosan resistance possible via a single step (McMurry L, Oethinger M, Levy S (1998) Nature 394: 531-532). […] It is, therefore, reasonable that the frequency of UV-induced triclosan-resistant mutants is considerably lower (˜8-fold) than the frequency of UV-induced ciprofloxacin-resistant mutants. The remaining triclosan-resistant mutants (˜15%) had MICs between 2-4 μg/mL. These included three different mutations of Phe 203 in FabI: a TA to CG transition giving serine, a TA to GC transversion giving valine, and a TA to GC transversion giving cystine (FIG. 2B). […]

Cc1cn([C@H]2C[C@H](N=[N+]=[N-])[C@@H](CO)O2)c(=O)[nH]c1=O [AZT, 3′-azido-2′-deoxythymidine]
MIC ([1]; both the wild-type and the isolated ciprofloxacin-/triclosan-resistant mutant cells): 0.01 mg/L | sensitivity to AZT ([1]; several rifampicin-resistant mutants): varying sensitivities | MIC (CC 102): 0.02 mg/L | antibacterial activity [2]: antibacterial activity

O=C(O)c1cn(C2CC2)c2cc(N3CCNCC3)c(F)cc2c1=O [ciprofloxacin]
MIC [3]: 0.48 mg/L

Cc1cn([C@H]2C=C[C@@H](CO)O2)c(=O)[nH]c1=O [d4T, 2′,3′-didehydro-3′-deoxythymidine]
UV-induced generation of mutations that confer resistance to ciprofloxacin [4]: inhibits | antibacterial activity [2]: antibacterial activity

Oc1cc(Cl)ccc1Oc1ccc(Cl)cc1Cl [triclosan]
MIC ([5]; remaining (~15%) triclosan-resistant mutants (FabI Phe 203 mutations)): 2 to 4 mg/L | MIC ([5]; vast majority (~85%) of triclosan-resistant mutants (FabI Gly 93→Val)): 16 mg/L
